Data taken from publication PMC10482825 (Scientific Reports, 2023).
Where a SMILES comes first, the peptide text is derived from it.

What was measured:
[1] = test system: the different tested pathogens; type: cell-based; conditions: span over tested pathogens, undetected values disregarded
Source text: (§1) The microbial strains used in this study were Bacillus subtilis (ATCC, 11774), Candida albicans (TIMM, 1768), Enterococcus faecalis (ATCC, 33186), Escherichia coli (ATCC, 11775), Klebsiella pneumoniae (ATCC, 13883), Methicillin-resistant Staphylococcus aureus (ATCC, BAA-41), Pseudomonas aeruginosa (ATCC, 10145), Salmonella enterica (ATCC, 14028), Serratia marcescens (ATCC, 13880), Staphylococcus aureus (ATCC, 25923) and Vibrio parahaemolyticus (ATCC, 17802). All microbial strains were cultivated overnight at 37 °C and 200 rpm, then subcultured and incubated for 3 h under the same incubation conditions to obtain the mid-logarithmic growth phase. The cultivated cells were washed twice with 10 mM Tris–HCl containing 5 mM D-glucose at pH 7.4 and suspended in the same buffer to be used in different assays, as previously described.
As a conclusive quantitative assessment, broth microtiter assay was used to determine the MIC values of each cryptide against B. subtilis, MRSA, S. enterica, P. aeruginosa, V. parahaemolyticus and C. albicans by following the guidelines of the Clinical and Laboratory Standards Institute (CLSI)[67], with slight modifications. Eighty microliters of 5 × 10^4 CFU/ml of each pathogen were dispensed into a 96-well polypropylene microtiter plate. The wells were then treated with 20 µl of serially diluted cryptides for 3 h at 37 °C. Gentamicin was used for positive controls at 0.2 mg/ml while an equivalent volume of acidified water was used for negative controls. The plates were then topped up with a final concentration of 1 × Mueller Hinton Broth (MHB) and incubated for 18 h under the same incubation conditions. MIC was detected as the lowest concentration of each cryptide that prevents the optically detectable microbial growth at OD = 600 nm.

C. albicans = test: Radial diffusion assay; type: cell-based, Candida albicans (TIMM, 1768); conditions: 5 µl of 500 µM per 3 mm well, 37 °C, mean ± SD
Source text: as §1
(§2) The antimicrobial activity spectra of the selected cryptides were screened against all the mentioned microbial pathogens, except V. parahaemolyticus, by radial diffusion assay as previously described, with slight modifications. […] The plates were then incubated for 18 h, and the antimicrobial activities were measured in the absolute unit (AU), as previously described. […]
(§3) plate. The plates were then incubated for 12 h at 37 °C and antimicrobial activities were measured in the term of absolute unit (A.U). […]

S. aureus = test: Radial diffusion assay; type: cell-based, Staphylococcus aureus (ATCC, 25923); conditions: 5 µl of 500 µM per 3 mm well, 37 °C, mean ± SD
Source text: as §1, §2, §3

K. pneumoniae = test: Radial diffusion assay; type: cell-based, Klebsiella pneumoniae (ATCC, 13883); conditions: 5 µl of 500 µM per 3 mm well, 37 °C, mean ± SD
Source text: as §1, §2, §3

Row | Compound | MBC values, range against the different tested pathogens [1] | MIC values, range against the different tested pathogens [1] | Antifungal activity (inhibition zone) C. albicans (C. albicans) [A.U.] | Antimicrobial activity (inhibition zone) S. aureus (S. aureus) [A.U.] | Antimicrobial activity (inhibition zone) K. pneumoniae (K. pneumoniae) [A.U.]
1 | CC(C)C[C@H](NC(=O)[C@H](CCCNC(=N)N)NC(=O)[C@H](Cc1c[nH]c2ccccc12)NC(=O)[C@H](CCCNC(=N)N)NC(=O)[C@H](CC(C)C)NC(=O)[C@@H](N)Cc1ccccc1)C(=O)N[C@@H](CCCCN)C(=O)N[C@@H](Cc1ccccc1)C(=O)N[C@@H](CCCCN)C(=O)N[C@@H](CO)C(=O)N[C@@H](CCCCN)C(=O)N[C@H](C(=O)N[C@@H](Cc1c[nH]c2ccccc12)C(=O)N[C@@H](CS)C(=O)N1CCC[C@H]1C(=O)O)C(C)C [AD7] (H-FLRWRLKFKSKVWCP-OH) | 0.39 ~ 25 µM | 0.39 ~ 6.25 µM |  |  | 
2 | RHCLRSKRPPNVCPH [AD4, cationic cryptide from P. vannamei precursor DN34505 (Pl-crustin 2), chemically synthesised] |  |  | 2.1 ± 0.5 | 24.4 ± 0.9 | 0
